The target in one test is T1, USP7 (Homo sapiens, UniProt Q93009, C315A).
T1 construct: 0.25 nM His-His-USP7 (aa208-560, [C315A]) was incubated with compound; His-His (N)
The experiment in a line: Inhibition of USP7 by Fluorescence Intensity (FLINT) readings, Ubiquitin-Rhodamine-110 substrate. Format: biochemical. The settings on record: 0.25 nM His-His-USP7 (aa208-560, [C315A]); compound 60 minutes at 30° C.; 500 nM Ubiquitin-Rhodamine substrate; 11-point curves. A digest of the protocol:
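His-His-USP7 (aa208-560, C315A) at 0.25 nM was preincubated with compound for 60 min at 30 °C in 100 mM Bicine pH 8.0, 0.01% Triton X-100, 1 mM TCEP, 10% DMSO. 500 nM ubiquitin-rhodamine-110 was then added, with fluorescence (Ex 485/Em 535 nm) read every 3 min for 21 min. IC50 came from kinetic-rate inhibition, 11-point curves, 4-parameter fit.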

The test system of test [1] is MM 1S multiple myeloma tumour cell line. The experiment in a line: In vitro cytotoxicity, MTT assay, MM1S cells. The class given is cell-based. The settings on record: Homo sapiens, MM1.S, 96 hours exposure. On the procedure:
(§1) The cytotoxicity studies were evaluated by MTT assay and carried out on MM 1S multiple myeloma or Z138 mantle cell lymphoma tumour cell lines. The cells are distributed onto microplates and exposed to the test compounds for 96 hours. The cell viability is then quantified by a colorimetric assay, the Microculture Tetrazolium Assay (Carmichael et. al., Cancer Res. […], 47, 936-942).

The subject of test [2] is Z138 mantle cell lymphoma tumour cell line. Briefly: In vitro cytotoxicity, MTT assay, Z138 cells. Format: cell-based. The settings on record: Homo sapiens, Z-138; Z138 tumour cell line (underlined values); 96 hours exposure. As for the experimental part:
as §1

SMILES strings stand for the structures.

T1 sequence (Q93009 208-560 C315A): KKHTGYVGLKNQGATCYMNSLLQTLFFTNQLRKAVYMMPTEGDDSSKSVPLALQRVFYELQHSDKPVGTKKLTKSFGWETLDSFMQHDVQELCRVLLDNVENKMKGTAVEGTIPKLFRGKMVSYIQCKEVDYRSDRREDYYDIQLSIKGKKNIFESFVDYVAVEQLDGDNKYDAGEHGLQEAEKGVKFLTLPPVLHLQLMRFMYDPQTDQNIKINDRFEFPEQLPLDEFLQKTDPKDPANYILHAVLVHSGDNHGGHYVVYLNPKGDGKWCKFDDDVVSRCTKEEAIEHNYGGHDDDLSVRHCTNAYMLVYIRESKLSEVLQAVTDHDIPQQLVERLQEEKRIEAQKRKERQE

In the case of `COc1ccc(-n2ccc3c(=O)n(CC4(O)CCN(C(=O)[C@@H]5CCC(F)(F)C[C@H]5c5ccccc5)CC4)cnc32)cc1` (single isomer, unassigned) [Example 34, 3-[[1-[trans-4,4-difluoro-2-phenyl-cyclohexanecarbonyl]-4-hydroxy-4-piperidyl]methyl]-7-(4-methoxyphenyl)pyrrolo[2,3-d]pyrimidin-4-one], the IC50 was determined as 23.1 nM against USP7, 24.5 nM in test [1] and 5.66 nM in test [2].

On to `O=C([C@@H]1CCCC[C@H]1n1cccc1)N1CCC(O)(Cn2cnc3c(ccn3-c3ccccc3)c2=O)CC1` (single isomer, unassigned) [Example 14, 3-[[4-hydroxy-1-[trans-2-pyrrol-1-ylcyclohexanecarbonyl]-4-piperidyl]methyl]-7-phenyl-pyrrolo[2,3-d]pyrimidin-4-one], for which the IC50 at USP7 came out at 27.1 nM; in test [1] it was 6.42 nM; in test [2] it was 14.7 nM.

As for `COc1ccc(-n2ccc3c(=O)n(CC4(O)CCN(C(=O)[C@@H]5CCCC[C@H]5c5ccc(F)cc5)CC4)cnc32)cc1` (single isomer, unassigned) [Example 41, 3-[[1-[trans-2-(4-fluorophenyl)cyclohexanecarbonyl]-4-hydroxy-4-piperidyl]methyl]-7-(4-methoxyphenyl)pyrrolo[2,3-d]pyrimidin-4-one], the IC50 at USP7 is 13 nM; in test [1] it was 7.22 nM.

For `COc1ccc(-n2ccc3c(=O)n(CC4(O)CCN(C(=O)[C@@H]5CC(F)(F)CC[C@H]5c5ccccc5)CC4)cnc32)cc1` (single isomer, unassigned) [Example 30, 3-[[1-[trans-5,5-difluoro-2-phenyl-cyclohexanecarbonyl]-4-hydroxy-4-piperidyl]methyl]-7-(4-methoxyphenyl)pyrrolo[2,3-d]pyrimidin-4-one], the IC50 against USP7 was determined as 15.9 nM; in test [1], 10.8 nM.

As for `O=C([C@@H]1CCCC[C@H]1c1ccccc1)N1CCC(O)(Cn2cnc3[nH]ccc3c2=O)CC1` (relative stereo) [Example 92, 3-[[4-hydroxy-1-(trans-2-phenylcyclohexanecarbonyl)-4-piperidyl]methyl]-7H-pyrrolo[2,3-d]pyrimidin-4-one], the IC50 came to 124 nM at USP7 and 523 nM in test [1].

With `COc1ccc(-n2ccc3c(=O)n(CC4(O)CCN(C(=O)C5CCC(=O)N(C)C5c5ccccc5)CC4)cnc32)cc1` (single isomer, unassigned) [Example 117, 3-{[4-hydroxy-1-trans-1-methyl-6-oxo-2-phenylpiperidine-3-carbonyl)piperidin-4-yl]methyl}-7-(4-methoxyphenyl)-3,7-dihydro-4H-pyrrolo[2,3-d]pyrimidin-4-one], the values for the IC50 (against USP7; in test [1]) were 30.9 nM and 26.4 nM, respectively.

The values above are taken from patent publication US11332472B2, “Substituted piperidines as inhibitors of ubiquitin specific protease 7” (LES LABORATOIRES SERVIER, priority 2017, dated 2022).
